Measurements published in US20050272040A1, “Method for increasing synaptic growth or plasticity” (priority 2002, published 2005).

System: hippocampal cells
Assay: Whole-cell patch-clamp recordings of synaptic charge
Format: cell-based, rat
Experimental: To examine the relationship between synaptic response and gene expression, an individual cell's electrophysiological response to BDNF was examined in conjunction with single-cell RT-PCR for Arc. […] Whole-cell patch-clamp recordings from 16 cells verified 0.8- to 4.5-fold increase in synaptic charge following 20 minutes BDNF exposure. […] A group of BDNF-treated cells presenting a minimal synaptic response was apparent. This group was categorized as non-responders (FIG. 1B) and the other cells showing a greater response to BDNF were classified as responders. To determine whether cellular basal activity influences the response to BDNF, the average synaptic charge pre-BDNF of the responders (36±13.1 pC, n=7) versus the non-responders (23.2±6.6 pC, n=9) was compared.
To explore a functional role for VGF in neuromodulation, whole-cell patch-clamp recordings on hippocampal cells were performed in the presence of synthetic VGF peptides. The electrophysiological profile of VGF peptides on hippocampal cells was similar to that observed for BDNF (Levine et al. (1996) supra). […] Enhanced synaptic activity was maintained for up to 25 minutes in the continued presence of Thr-Leu-Gln-Pro-62 (SEQ ID NO:14). […] The effects of both Ala-Gln-Glu-Glu-30 (SEQ ID NO:16) and Thr-Leu-Gln-Pro-62 (SEQ ID NO:14) peptides were dose-dependent, saturating at 0.1 μM.
Whole-cell patch clamp recordings were performed after 10-14 days in culture. Currents were recorded with an Axoclamp 200 amplifier, digitized at 2.5 kHz with an INDEC IDA 15125 interface, filtered at 5 kHz and stored. Recording parameters and stimulus protocols were controlled by custom software written with Borland C++ that utilizes device driver libraries supplied by INDEC. Data analysis programs were written with Microsoft Visual Basic. The. external bath solution for voltage clamp recordings was (in mM) 1.67 CaCl2, 1 MgCl2, 5.36 KCl, 137 NaCl, 17 glucose, 10 HEPES and 20 sucrose (neuron recording solution, NRS). The pipette solution contained (in mM) 105 Cs-methanesulfonate, 17.5 CsCl, 10 HEPES, 0.2 EGTA, 8 NaCl, 2 Mg-ATP, 2 Na-ATP, 0.3 Na-GTP, 20 phosphocreatinine, and 50 U/ml creatinine phosphokinase. All recordings were made at room temperature. The typical range of pipette resistance was 3-5 MΩ. Cell capacitance was 10-20 pF and access resistance was 7-20 MΩ. Vacuum perfusion system contained BDNF (50 ng/ml, Preprotech, Princeton, N.J.), NRS as a control or VGF peptides (0.1 μM=740 ng/ml). Three synthetic rat VGF peptides were used: Leu-Glu-Gly-Ser-28 (SEQ ID NO:15) amino acids 285-312 (amidated), Thr-Leu-Gln-Pro-62 (SEQ ID NO:14) amino acids 556-617 and Ala-Gln-Glu-Glu-30 (SEQ ID NO:16) amino acids 588-617. Each data point represents a cell from a separate dish and at least three different platings were used for each condition.
Data were analyzed by integrating the synaptic currents for each sweep (synaptic charge). The charge measurements for all sweeps in a 1 min period were averaged (binned). Baseline is considered the average synaptic charge during the 2 min period (−2 to 0 min) in NRS immediately prior to BDNF or VGF application. Fold increases were then determined by dividing the synaptic charge during BDNF or VGF exposure by the baseline. Recordings were rejected if either the 0-5 min binned time period or 5-10 min binned time period after switching during BDNF or VGF exposure was 2×SEM below baseline, indicating “run down”.

## Ala-Gln-Glu-Glu-30: synthetic rat VGF peptide, amino acids 588-617, C-terminal region (AQEE)
  Saturating concentration of dose-dependent effect on synaptic charge: 0.1 µM
